Results taken from patent US20100061982A1, “3-SUBSTITUTED-1H-INDOLE, 3-SUBSTITUTED-1H-PYRROLO[2,3-B]PYRIDINE AND 3-SUBSTITUTED-1H-PYRROLO[3,2-B]PYRIDINE COMPOUNDS, THEIR USE AS MTOR KINASE AND PI3 KINASE INHIBITORS, AND THEIR SYNTHESES” (priority 2008, published 2010).
pIC50: −log10 of the molar value. Converted amounts (≈) assume the structure as drawn. Like-named read-outs stand apart in the source and are kept apart here.

Key:
[1] = PAMPA permeability pH 7.4
PI3K alpha = PI3K alpha (Homo sapiens, UniProt P42336); test: PI3K-alpha Fluorescence Polarization Assay; format: biochemical
PI3K alpha, sequence (P42336 whole entry, species assumed): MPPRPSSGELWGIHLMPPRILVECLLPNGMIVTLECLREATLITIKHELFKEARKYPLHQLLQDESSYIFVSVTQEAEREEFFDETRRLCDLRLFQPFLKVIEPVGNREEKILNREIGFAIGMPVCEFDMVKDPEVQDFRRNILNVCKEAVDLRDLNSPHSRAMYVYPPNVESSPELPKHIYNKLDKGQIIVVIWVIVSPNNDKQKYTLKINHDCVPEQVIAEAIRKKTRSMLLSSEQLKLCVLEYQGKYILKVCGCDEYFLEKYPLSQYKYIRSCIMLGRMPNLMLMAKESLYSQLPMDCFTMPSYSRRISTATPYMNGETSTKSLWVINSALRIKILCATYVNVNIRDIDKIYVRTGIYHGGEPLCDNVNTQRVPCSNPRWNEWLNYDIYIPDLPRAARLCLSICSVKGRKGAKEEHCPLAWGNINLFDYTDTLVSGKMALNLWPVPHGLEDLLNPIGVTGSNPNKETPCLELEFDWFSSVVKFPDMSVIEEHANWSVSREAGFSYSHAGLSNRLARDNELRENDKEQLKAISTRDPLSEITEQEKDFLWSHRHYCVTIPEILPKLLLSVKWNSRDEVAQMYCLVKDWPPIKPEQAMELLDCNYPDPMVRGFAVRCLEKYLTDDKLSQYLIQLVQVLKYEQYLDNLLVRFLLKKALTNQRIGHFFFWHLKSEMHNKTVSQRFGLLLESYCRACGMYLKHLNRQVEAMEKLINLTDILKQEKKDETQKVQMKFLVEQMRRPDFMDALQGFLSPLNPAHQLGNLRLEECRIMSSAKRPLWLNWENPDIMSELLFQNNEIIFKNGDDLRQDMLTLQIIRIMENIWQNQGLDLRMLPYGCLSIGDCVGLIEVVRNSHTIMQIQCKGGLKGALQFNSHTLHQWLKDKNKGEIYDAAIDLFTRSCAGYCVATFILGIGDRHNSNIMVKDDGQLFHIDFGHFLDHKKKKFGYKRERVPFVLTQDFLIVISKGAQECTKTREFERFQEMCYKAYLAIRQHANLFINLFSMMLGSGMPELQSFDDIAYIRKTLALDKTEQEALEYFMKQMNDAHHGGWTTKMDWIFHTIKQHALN
PI3K alpha, sequence (P27986 whole entry partner, species assumed): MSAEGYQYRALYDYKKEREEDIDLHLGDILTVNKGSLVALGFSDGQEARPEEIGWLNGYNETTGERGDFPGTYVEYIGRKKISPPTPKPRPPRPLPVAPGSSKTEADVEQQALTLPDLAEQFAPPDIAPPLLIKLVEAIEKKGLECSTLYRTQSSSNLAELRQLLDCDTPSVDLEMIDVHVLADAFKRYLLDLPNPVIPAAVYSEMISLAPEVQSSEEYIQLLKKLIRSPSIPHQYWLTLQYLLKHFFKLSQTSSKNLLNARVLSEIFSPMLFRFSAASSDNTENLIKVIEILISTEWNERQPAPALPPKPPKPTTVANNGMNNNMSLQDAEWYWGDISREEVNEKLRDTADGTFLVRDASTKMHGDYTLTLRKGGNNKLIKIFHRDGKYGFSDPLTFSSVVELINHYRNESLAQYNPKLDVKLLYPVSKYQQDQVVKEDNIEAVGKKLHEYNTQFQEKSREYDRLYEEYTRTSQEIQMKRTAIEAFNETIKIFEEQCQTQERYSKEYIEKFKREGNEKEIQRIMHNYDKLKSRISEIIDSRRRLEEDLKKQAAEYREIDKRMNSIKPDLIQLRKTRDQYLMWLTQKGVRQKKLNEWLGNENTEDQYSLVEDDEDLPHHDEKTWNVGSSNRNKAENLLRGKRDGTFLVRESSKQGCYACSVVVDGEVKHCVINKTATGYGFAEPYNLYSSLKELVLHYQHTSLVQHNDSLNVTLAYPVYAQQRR

[2] = Microsome Stability (15 min), rat; format: in vitro ADME; conditions: microsomes
[3] = Plasma Stability (37° C.), rat
[4] = Microsome Stability (15 min), human; format: in vitro ADME; conditions: microsomes
[5] = Plasma Stability (37° C.), nude mouse
[6] = Buffer Stability (37° C.)
[7] = Microsome Stability (15 min), nude mouse; format: in vitro ADME; conditions: microsomes
Solubility pH 7.4 = conditions: pH 7.4, aqueous buffer
[8] = CACO2 permeability a-b/b-a; format: in vitro ADME; conditions: human, Caco-2; for Papp A→B: a − b (first value of cell), read-out: CACO2 Pe a − b; for Papp B→A: b − a (second value of cell), read-out: CACO2 Pe b − a
[9] = In vivo blood/plasma and tumor levels of prodrug and metabolites after 50 mg, kg po; conditions: 50 mg
mTOR = mTOR (Homo sapiens, UniProt P42345); test: mTOR Enzyme Assay (DELFIA, purified enzyme); format: biochemical; parameters: FLAG; conditions: read-out: mTOR Mean IC50
[10] = Phase I (NADPH), read-out: Microsome Stability (15 min) T ½ Phase I rat
[11] = Phase I (NADPH), read-out: Microsome Stability (15 min) T ½ Phase I human
[12] = nude, mouse, Phase I (NADPH), read-out: Microsome Stability (15 min) T ½ Phase I nude mouse
[13] = value after the slash in Table VIc, read-out: Microsome Stability (15 min) T ½ rat, second value of cell
[14] = value after the slash in Table VIc, read-out: Microsome Stability (15 min) T ½ human, second value of cell
[15] = nude, mouse, value after the slash in Table VIc, read-out: Microsome Stability (15 min) T ½ nude mouse, second value of cell

Row | PAMPA Pe [1] | pIC50 (PI3K alpha; read-out: PI3K alpha Mean IC50) | half-life [2, 10] | Plasma Stability (37° C.) % Remaining (3-3.5 hours) rat [3] | half-life [4, 11] | Plasma Stability (37° C.) % Remaining (3-3.5 hours) nude mouse [5] | Buffer Stability (37° C.) % Remaining (at 16-23 hours) SGF [6] | Buffer Stability (37° C.) % Remaining (at 16-23 hours) SIF [6] | Buffer Stability (37° C.) % Remaining (at 16-23 hours) pH 1 [6] | Buffer Stability (37° C.) % Remaining (at 16-23 hours) pH 4.5 [6] | Buffer Stability (37° C.) % Remaining (at 16-23 hours) pH 6.6 [6] | Buffer Stability (37° C.) % Remaining (at 16-23 hours) pH 7.4 [6] | Buffer Stability (37° C.) % Remaining (at 16-23 hours) pH 9 [6] | half-life [7, 12] | solubility (Solubility pH 7.4) | half-life [2, 13] | half-life [4, 14] | pIC50 (mTOR) | half-life [7, 15] | SMILES | further results
1 | 0 10e−6 cm/s | 8.70 | > 30 min | 42% | 12 min | 34% | 66% | 0% | 2% | 64% | 0% | 0% | 0% | 9 min | – | – | – | – | – | COc1ccc2[nH]c(-c3ccccc3)c(/C=C3\Oc4cc(OC(C)=O)cc(OC(C)=O)c4C3=O)c2c1 [Example 3, (2Z)-2-[(5-methoxy-2-phenyl-1H-indol-3-yl)methylene]-3-oxo-2,3-dihydro-1-benzofuran-4,6-diyl diacetate] | –
2 | 0 10e−6 cm/s | 5.56 | 12 min | 6% | 19 min | 0% | 95% | 0% | 86% | 92% | 72% | 44% | 0% | – | 2 µg/mL (≈ 3.52 µM) | – | – | – | – | COc1ccc2[nH]c(-c3ccccc3)c(/C=C3\Oc4cc(OC(=O)C(C)(C)C)cc(OC(=O)C(C)(C)C)c4C3=O)c2c1 [Example 10, (2Z)-2-[(5-methoxy-2-phenyl-1H-indol-3-yl)methylene]-3-oxo-2,3-dihydro-1-benzofuran-4,6-diyl bis(2,2-dimethylpropanoate)] | –
3 | 0 10e−6 cm/s | – | 21 min | – | 11 min | – | 99% | 63% | 99% | 78% | 63% | 66% | 79% | > 30 min | 32 µg/mL (≈ 69 µM) | 6 min | 17 min | 7.65 | 25 min | COc1ccc2c(c1)c(/C=C1\Oc3cc(O)cc(O)c3C1=O)c(C)n2CCN1CCN(C)CC1 [(2Z)-4,6-dihydroxy-2-({5-methoxy-2-methyl-1-[2-(4-methylpiperazin-1-yl)ethyl]-1H-indol-3-yl}methylene)-1-benzofuran-3(2H)-one] | –
4 | 0 10e−6 cm/s | < 5.01 | < 1 min | 0% | 3 min | 16% | 94% | 0% | 95% | 82% | 63% | 14% | 0% | 3 min | 3 µg/mL (≈ 5.17 µM) | – | – | – | – | COc1ccc2c(c1)c(/C=C1\Oc3cc(OC(=O)OC(C)C)cc(OC(=O)OC(C)C)c3C1=O)cn2CCCN(C)C [Example 5, (2Z)-2-({1-[3-(dimethylamino)propyl]-5-methoxy-1H-indol-3-yl}methylene)-3-oxo-2,3-dihydro-1-benzofuran-4,6-diyl diisopropyl biscarbonate] | –
5 | 0 10e−6 cm/s | < 5.00 | 4 min | 0% | 6 min | 8% | 77% | 0% | 73% | 66% | 46% | 0% | 0% | 6 min | 1 µg/mL (≈ 1.73 µM) | – | – | – | – | COc1ccc2c(c1)c(/C=C1\Oc3cc(OC(=O)CC(C)C)cc(OC(=O)CC(C)C)c3C1=O)cn2CCCN(C)C [Example 9, (2Z)-2-({1-[3-(dimethylamino)propyl]-5-methoxy-1H-indol-3-yl}methylene)-3-oxo-2,3-dihydro-1-benzofuran-4,6-diyl bis(3-methylbutanoate)] | –
6 | 0 10e−6 cm/s | – | > 30 min | – | 24 min | – | 95% | 77% | 97% | 96% | 83% | 68% | 72% | 29 min | – | 5 min | 5 min | 7.10 | 5 min | COc1ccc2[nH]c(-c3ccccc3)c(C=C3Oc4cc(O)cc(O)c4C3=O)c2c1 [4,6-dihydroxy-2-[(5-methoxy-2-phenyl-1H-indol-3-yl)methylene]-1-benzofuran-3(2H)-one] | Papp A→B [8]: 1.25 ×10⁻⁶ cm/s; Papp B→A [8]: 6.65 ×10⁻⁶ cm/s; plasma prodrug, Dosed @ 50 mg, kg po (precursor phenolic compound dosed) ([9]; 1 h conc.): bql, bql*; plasma prodrug, Dosed @ 50 mg, kg po (precursor phenolic compound dosed) ([9]; 4 h conc.): bql, bql*
7 | 0.01 10e−6 cm/s | 7.91 | 12 min | – | 6 min | – | – | – | – | – | – | – | – | 26 min | 68 µg/mL (≈ 152 µM) | 8 min | 5 min | 6.49 | 20 min | COc1ccc2c(c1)c(/C=C1\Oc3cc(O)ccc3C1=O)c(C)n2CCN1CCN(C)CC1 [(2Z)-6-hydroxy-2-({5-methoxy-2-methyl-1-[2-(4-methylpiperazin-1-yl)ethyl]-1H-indol-3-yl}methylene)-1-benzofuran-3(2H)-one] | –
8 | 0 10e−6 cm/s | 6.05 | 3 min | 0% | 5 min | 22% | 93% | 0% | 94% | 91% | 59% | 16% | 0% | > 30 min | – | – | – | – | – | COc1ccc2[nH]c(-c3ccccc3)c(/C=C3\Oc4cc(OC(=O)OC(C)C)cc(OC(=O)OC(C)C)c4C3=O)c2c1 [Example 7, diisopropyl (2Z)-2-[(5-methoxy-2-phenyl-1H-indol-3-yl)methylene]-3-oxo-2,3-dihydro-1-benzofuran-4,6-diyl biscarbonate] | –

Row | SMILES | PAMPA Pe [1] | pIC50 (PI3K alpha; read-out: PI3K alpha Mean IC50) | half-life [2, 10] | Plasma Stability (37° C.) % Remaining (3-3.5 hours) rat [3] | half-life [4, 11] | Plasma Stability (37° C.) % Remaining (3-3.5 hours) nude mouse [5] | Buffer Stability (37° C.) % Remaining (at 16-23 hours) SGF [6] | Buffer Stability (37° C.) % Remaining (at 16-23 hours) SIF [6] | Buffer Stability (37° C.) % Remaining (at 16-23 hours) pH 1 [6] | Buffer Stability (37° C.) % Remaining (at 16-23 hours) pH 4.5 [6] | Buffer Stability (37° C.) % Remaining (at 16-23 hours) pH 6.6 [6] | Buffer Stability (37° C.) % Remaining (at 16-23 hours) pH 7.4 [6] | Buffer Stability (37° C.) % Remaining (at 16-23 hours) pH 9 [6] | half-life [7, 12] | solubility (Solubility pH 7.4) | half-life [2, 13] | half-life [4, 14] | pIC50 (mTOR) | half-life [7, 15] | further results
9 | COc1ccc2c(c1)c(/C=C1\Oc3cc(OC(=O)N(C)c4ccccc4)cc(OC(=O)N(C)c4ccccc4)c3C1=O)cn2CCCN(C)C [Example 2, (2Z)-2-({1-[3-(dimethylamino)propyl]-5-methoxy-1H-indol-3-yl}methylene)-3-oxo-2,3-dihydro-1-benzofuran-4,6-diyl bis[methyl(phenyl)carbamate]] | 0 10e−6 cm/s | – | > 30 min | 22% | 24 min | 10% | 100% | 100% | 100% | 100% | 100% | 100% | 100% | – | – | – | – | – | – | pIC50 (PI3K alpha): < 5.00; Papp A→B [8]: 0.04 ×10⁻⁶ cm/s; Papp B→A [8]: 0.08 ×10⁻⁶ cm/s; plasma prodrug concentration ([9]; 0.5 h): 486 ng, ml; plasma prodrug concentration ([9]; 2 h): 757 ng, ml; half-life ([7]; Phase I (NADPH), read-out: Microsome Stability (15 min) T ½ Phase I nude mouse): > 30 min
10 | COc1ccc2c(c1)c(/C=C1\Oc3cc(OC(=O)N4CCOCC4)cc(OC(=O)N4CCOCC4)c3C1=O)cn2CCCN(C)C [Example 1, (2Z)-2-({1-[3-(dimethylamino)propyl]-5-methoxy-1H-indol-3-yl}methylene)-3-oxo-2,3-dihydro-1-benzofuran-4,6-diyl dimorpholine-4-carboxylate] | 1.4 10e−6 cm/s | – | > 30 min | – | – | – | – | – | – | – | – | – | – | – | > 100 µg/mL | – | – | < 5.40 | – | pIC50 (PI3K alpha): < 5.00
